# Data as given in patent US4465676A, “16α Halogen substituted 3,17β-dihydroxy steroidal estrogens” (priority 1980, dated 1984).
# Like-named read-outs stand apart in the source and are kept apart here.
# Legend:
# [1] = target: T1, estrogen receptor (calf uterine cytosol) (Bos taurus, UniProt P49884); assay: Competition for the estrogen receptor in calf uterine cytosol; assay type: binding; details: for activity at 0.0005 µM: competitor 0.5 nM
# T1 construct: Fresh calf uteri obtained from a slaughterhouse; from tissue; host or cells: calf uterus, 150,000 x g cytosol from lyophilized powder
# T1 sequence (P49884 1-596): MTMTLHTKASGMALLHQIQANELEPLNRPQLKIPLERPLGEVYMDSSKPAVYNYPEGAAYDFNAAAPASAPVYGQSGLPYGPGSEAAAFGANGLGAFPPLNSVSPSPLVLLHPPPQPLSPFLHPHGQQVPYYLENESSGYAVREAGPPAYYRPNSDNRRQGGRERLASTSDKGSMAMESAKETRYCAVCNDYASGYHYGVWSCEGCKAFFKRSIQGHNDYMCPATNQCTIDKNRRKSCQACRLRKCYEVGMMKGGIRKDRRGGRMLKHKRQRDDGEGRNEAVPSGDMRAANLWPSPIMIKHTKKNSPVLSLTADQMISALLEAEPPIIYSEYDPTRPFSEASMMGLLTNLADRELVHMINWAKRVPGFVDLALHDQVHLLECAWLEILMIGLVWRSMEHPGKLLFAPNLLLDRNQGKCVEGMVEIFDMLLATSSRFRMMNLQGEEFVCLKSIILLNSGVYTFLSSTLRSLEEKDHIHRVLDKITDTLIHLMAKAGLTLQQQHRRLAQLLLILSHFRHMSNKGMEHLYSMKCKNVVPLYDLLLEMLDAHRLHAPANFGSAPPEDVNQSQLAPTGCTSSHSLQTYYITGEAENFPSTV
# Experimental: Several compounds, at the two indicated concentrations, were allowed to compete with both labeled steroids for sites in calf uterine cytosol. Incubations were overnight at 4° C., and bound and free steroids were separated with dextran-coated charcoal.
# [2] = test system: estrogen-dependent human breast tumor cell line (MCF-7); assay: Induction of growth of MCF-7 cells in vitro; assay type: cell-based
# Excerpt: This difference in potency, can be explained either by differences in the peripheral metabolism of the two compounds or by differences in events that occur after binding to the cytosolic receptor has taken place. At this time we believe the former explanation to be correct because the two estrogens are equipotent in vitro in inducing growth of an estrogen-dependent human breast tumor cell line (MCF-7).
# [3] = target: T2, calf uterine estrogen receptor (Bos taurus, UniProt P49884); assay: Saturation and Scatchard analysis of the estrogen receptor from calf uterus; assay type: binding; details: Scatchard analysis, calf uterine cytosol
# T2 construct: Fresh calf uteri obtained from a slaughterhouse; from tissue; host or cells: calf uterus, 150,000 x g cytosol from lyophilized powder
# T2 sequence (P49884 1-596): T1 sequence (P49884 1-596)
# Experimental: Fresh calf uteri obtained from a slaughterhouse were brought to the laboratory on ice, immediately trimmed of fat, and cut into small pieces; the pieces were frozen in liquid nitrogen and pulverized. The pulverized frozen tissue was lyophilized, and the desiccated powder was stored under vacuum in sealed vials at -80° C. The uterine powders were usually used within 1 month of pulverization. When needed, the powders were suspended in 0.1M Tris-HCl, pH 7.4/2.5 mM EDTA/5 mM dithiotreithol (TED buffer) at 2.5 mg/ml and homogenized at 0° C. in a Polytron homogenizer with two or three pulses at 15 seconds each. The homogenate was then centrifuged at 150,000×g for 60 minutes and the resulting supernatant (cytosol), containing approximately 1 mg of protein per ml, was used for binding studies on the estrogen receptor.
# After the solvent was removed under a stream of N2, 250 μl of cytosol was added and the samples were incubated at 0°-2° C. overnight. The following morning, 250 μl of a 0.5% suspension of dextran-coated charcoal in TED buffer was added to the tubes which then were mixed and centrifuged at 5000×g for 10 minutes. The supernatant was assayed to determine bound radioactivity.
# A saturation analysis of the estrogen receptor from calf uterus was conducted. […] Nonspecific binding, specific binding and total binding were determined in parallel incubations containing 0.7 μM DES.
# A Scatchard analysis of the estrogen receptor from calf uterus was also conducted.
# [4] = test system: 21-day-old female rats (uteri); assay: Estrogen bioassay, uterine weight in 21-day-old female rats; assay type: in vivo; details: daily s.c. injections for 3 days, uterine weight on fourth day
# Experimental: Estrogenic potency was assayed in 21-day-old female rats. […] On the fourth day, the uteri were removed, trimmed, blotted, and weighed.
# [5] = test system: antisera against bovine serum albumin complexes with E2-17-hemisuccinate, E2-6-carboxymethyloxime and E2-3-carboxymethyl ether; assay: Radioimmunoassay with antisteroid antisera; assay type: binding, rabbits
# Experimental: Antisteroid antisera were produced in rabbits immunized with steroid-bovineserum albumin conjugates.
# Varying amounts of E2 dissolved in methanol were added to test tubes and evaporated to dryness. The residues were dissolved in 100 μl of antiserum that had been diluted in 0.1M phosphate, pH 7.0/0.015M sodium azide/0.15M NaCl/0.1% gelatin (PBS buffer). […] Upon completion of the incubation, 100 μl of 0.5% gelatin in PBS buffer was added, followed by 1 ml of PBS buffer containing 2.5 mg of dextran-coated charcoal. The mixture was agitated in a vortex mixer and, after 10 minutes at 4° C., it was centrifuged at 5000×g for 10 minutes at 4° C. Aliquots (0.9 ml) were assayed for radioactivity.
# The data also indicate that very sensitive radioimmunoassays could be developed with all three antisera.
# [6] = test system: estrogen receptors; details: ability to displace [3H]estradiol from receptor sites; cited from earlier work
# [7] = External localization of tracer in an ovariectomized squirrel monkey; assay type: in vivo, squirrel monkey (Saimari Sciureus)
# Experimental: The tracer ^131 I-E2 was synthesized as described in Example 6 with the exception that Na ^131 I was used for the exchange. The subject, a squirrel monkey (Saimari Sciureus), weighing 1.5 kilograms, was ovariectomized 2 weeks before the start of the experiment and an estradiol containing Silastic implant was placed subcutaneously in […] back. The implant was removed 24 hours before the intravenous injection of 200 μCi of the tracer dissolved in saline. […] Within 1 to 2 hours radioactivity could be detected in the suprapubic region, but when the bladder was aspirated and washed, 3.8 μCi of radioactivity was found in the urine.
# [8] = read-out: B/B0 × 10^2, tracer ^3 H-E2 (0.74 nM)
# [9] = read-out: B/B0 × 10^2, tracer ^3 H-E2 (0.74 nM), competitor 5.0 nM
# [10] = read-out: B/B0 × 10^2, tracer ^125 I-E2 (0.22 nM)
# [11] = read-out: B/B0 × 10^2, tracer ^125 I-E2 (0.22 nM), competitor 5 nM
compound,measurement,setting,value
C[C@]12C[C@H](O)[C@H]3[C@@H](CCC4=CC(=O)CC[C@@]43C)[C@@H]1CC[C@@H]2C(=O)CO [Corticosterone],activity at 0.0005 µM,"[1]; tracer ^3 H-E2 (0.74 nM), read-out: B/B0 × 10^2",103%
same,activity at 0.005 µM,"[1]; tracer ^3 H-E2 (0.74 nM), competitor 5.0 nM, read-out: B/B0 × 10^2",97%
same,activity at 0.0005 µM,"[1]; tracer ^125 I-E2 (0.22 nM), read-out: B/B0 × 10^2",100%
same,activity at 0.005 µM,"[1]; tracer ^125 I-E2 (0.22 nM), competitor 5 nM, read-out: B/B0 × 10^2",93%
CC(=O)[C@H]1CC[C@H]2[C@@H]3CCC4=CC(=O)CC[C@]4(C)[C@H]3CC[C@]12C [Progesterone],activity at 0.0005 µM,[1]; [8],97%
same,activity at 0.005 µM,[1]; [9],102%
same,activity at 0.0005 µM,[1]; [10],98%
same,activity at 0.005 µM,[1]; [11],102%
"C[C@]12CC[C@@H]3c4ccc(O)cc4CC[C@H]3[C@@H]1C[C@@H](I)[C@@H]2O [I-E2, 16α-iodoestra-1,3,5,(10)-triene-3,17β-diol]",inducing growth of MCF-7,[2],equipotent
same,binding capacity,[3],411 fmol/mg of protein
same,Kd,[3]; read-out: Ka (association constant) (converted),0.141 nM
same,activity at 0.0005 µM,[1]; [8],69%
same,activity at 0.005 µM,[1]; [9],12%
same,activity at 0.0005 µM,[1]; [10],35%
same,activity at 0.005 µM,[1]; [11],2%
same,competing for the estrogen receptor (in words),[1]; regardless of which radioactive ligand was used,about equipotent
same,estrogenic potency in vivo,[4],"estrogenic in vivo, albeit not as potent as E2 itself"
[3H]C1c2cc(O)ccc2[C@H]2CC[C@]3(C)[C@@H](O)CC[C@H]3[C@@H]2C1[3H] (stereo partly drawn) [^3 H-E2],binding of tracer to antisera,"[5]; three antisera, various dilutions",bound to all three antisera
"C[C@]12CC[C@@H]3c4ccc(O)cc4CC[C@H]3[C@@H]1C[C@H](I)[C@@H]2O [16β-iodoestra-1,3,5(10)-triene-3-17β-diol]",relative binding affinity,[6],0.57
"C[C@]12CC[C@@H]3c4ccc(O)cc4C(I)=C[C@H]3[C@@H]1CC[C@@H]2O [6-iodoestra-1,3,5(10), 6-tetraene-3,17β-diol]",relative binding affinity,[6],0.49
"C[C@]12CC[C@@H]3c4ccc(O)cc4CC[C@H]3[C@@H]1CC[C@@H]2O [E2, estra-1,3,5(10)-triene-3,17β-diol, reference compound]",inducing growth of MCF-7,[2],equipotent
same,tracer displaced from the antibody,"[5]; anti-E2-6-carboxymethyloxime-albumin, 1 pg of E2",~50%
C[C@]12CC[C@H](O)CC1=CC[C@@H]1[C@@H]2CC[C@]2(C)C(=O)CC[C@@H]12 [Dehydroisoandrosterone],activity at 0.0005 µM,[1]; [8],98%
same,activity at 0.005 µM,[1]; [9],108%
same,activity at 0.0005 µM,[1]; [10],104%
same,activity at 0.005 µM,[1]; [11],107%
C[C@]12CC[C@@H]3c4ccc(O)cc4CC[C@H]3[C@@H]1C[C@@H]([131I])[C@@H]2O [^131 I-E2],imaging of the uterus,[7]; Anger Camera,uterus was then imaged
same,radioactivity found in the urine,"[7]; bladder aspirated and washed, i.v. 200 μCi",3.8 μCi
same,time until radioactivity detected in the suprapubic region,[7]; i.v. 200 μCi,1 to 2 h
same,uptake of the tracer in the liver,"[7]; i.v. 200 μCi, pin-hole collimator scan",could be seen immediately
